Measurements published in article PMC9516332 (Frontiers in Oncology, 2022).
Where two headings read alike, the source gives them in different places.

System: 134 cancer cell lines
Assay: Cell viability assay (ATPlite, 72 hours), IC50 on cancer cell line panel

With COc1cc2ncnc(Nc3ccc(F)c(Cl)c3)c2cc1NC(=O)/C=C/CN1CCCCC1 [dacomitinib] the “lower IC50 of the most sensitive cell line compared to the panel average” value (134 cell line panel) was “more than 1000 fold”, the IC50 (HEC-6, read-out: IC50 in cell proliferation assay, HEC-6 cell line (EGFR p.A289V)) was 2.51 µM and the IC50 (Homo sapiens, 769-P, read-out: IC50 in cell proliferation assay, cell line 769-P) was 0.032 µM. For the same molecule, the IC50 (Homo sapiens, 786-0, read-out: IC50 in cell proliferation assay, cell line 786-O) was 3.04 µM, the IC50 (Homo sapiens, A 172, read-out: IC50 in cell proliferation assay, cell line A-172) was 3.62 µM and the IC50 (Homo sapiens, A204, read-out: IC50 in cell proliferation assay, cell line A-204) was 2.51 µM. It also gave an IC50 (Homo sapiens, A498, read-out: IC50 in cell proliferation assay, cell line A-498) of 2.57 µM, an IC50 (Homo sapiens, A549, read-out: IC50 in cell proliferation assay, cell line A-549) of 6.63 µM and an IC50 (Homo sapiens, A704, read-out: IC50 in cell proliferation assay, cell line A-704) of 3.91 µM. For the same molecule, the IC50 (Homo sapiens, A-375, read-out: IC50 in cell proliferation assay, cell line A-375 (BRAF p.V600E)) was 3.46 µM, the IC50 (Homo sapiens, A-427, read-out: IC50 in cell proliferation assay, cell line A-427) was 2.89 µM and the IC50 (Homo sapiens, ACHN, read-out: IC50 in cell proliferation assay, cell line ACHN) was 0.011 µM. The IC50 (Homo sapiens, AN3-CA, read-out: IC50 in cell proliferation assay, cell line AN3-CA (FGFR2 p.N549K)) was 3.75 µM, the IC50 (Homo sapiens, ASPC1, read-out: IC50 in cell proliferation assay, cell line AsPC-1) was 5.82 µM and the IC50 (Homo sapiens, AU565, read-out: IC50 in cell proliferation assay, cell line AU565 (ERBB2 amplification)) was 0.068 µM. The IC50 (Homo sapiens, BT-20, read-out: IC50 in cell proliferation assay, cell line BT-20) was 5.62 µM, the IC50 (Homo sapiens, BT-474, read-out: IC50 in cell proliferation assay, cell line BT-474 (ERBB2 amplification)) was 0.037 µM and the IC50 (Homo sapiens, BT-549, read-out: IC50 in cell proliferation assay, cell line BT-549) was 3.68 µM. It also gave an IC50 (Homo sapiens, BXPC-3, read-out: IC50 in cell proliferation assay, cell line BxPC-3) of 4.06 µM, an IC50 (Homo sapiens, C-33-A, read-out: IC50 in cell proliferation assay, cell line C-33 A) of 0.04 µM and an IC50 (Homo sapiens, CAL-27, read-out: IC50 in cell proliferation assay, cell line CAL-27) of 0.011 µM. The IC50 (Homo sapiens, CCF-STTG1, read-out: IC50 in cell proliferation assay, cell line CCF-STTG1) was 5.61 µM, the IC50 (Homo sapiens, CCRF-CEM, read-out: IC50 in cell proliferation assay, cell line CCRF-CEM) was 3.27 µM and the IC50 (Homo sapiens, COLO 205, read-out: IC50 in cell proliferation assay, cell line COLO 205 (BRAF p.V600E)) was 4.28 µM. For the same molecule, the IC50 (Homo sapiens, COLO-829, read-out: IC50 in cell proliferation assay, cell line COLO 829 (BRAF p.V600E)) was 6.02 µM, the IC50 (Homo sapiens, DLD-1, read-out: IC50 in cell proliferation assay, cell line DLD-1) was 3.24 µM and the IC50 (Homo sapiens, DU-4475, read-out: IC50 in cell proliferation assay, cell line DU4475 (BRAF p.V600E)) was 5.24 µM. It also gave an IC50 (Homo sapiens, Daoy, read-out: IC50 in cell proliferation assay, cell line Daoy) of 3.77 µM, an IC50 (Homo sapiens, DoTc2-4510, read-out: IC50 in cell proliferation assay, cell line DoTc2 4510) of 0.012 µM and an IC50 (Homo sapiens, EOL1, read-out: IC50 in cell proliferation assay, cell line EoL-1 (FIP1L1-PDGFRA)) of 0.72 µM. It also gave an IC50 (Homo sapiens, FaDu, read-out: IC50 in cell proliferation assay, cell line FaDu) of 0.013 µM, an IC50 (Homo sapiens, G-361, read-out: IC50 in cell proliferation assay, cell line G-361 (BRAF p.V600E)) of 4.11 µM and an IC50 (Homo sapiens, HCC827, read-out: IC50 in cell proliferation assay, cell line HCC827 (EGFR exon19del)) of 0.00113 µM. The IC50 (Homo sapiens, HCC4006, read-out: IC50 in cell proliferation assay, cell line HCC4006 (EGFR exon19del)) was 0.00119 µM, the IC50 (Homo sapiens, HCT-15, read-out: IC50 in cell proliferation assay, cell line HCT 15) was 3.45 µM and the IC50 (Homo sapiens, HCT-116, read-out: IC50 in cell proliferation assay, cell line HCT 116) was 2.3 µM. It also gave an IC50 (Homo sapiens, HEC-1, read-out: IC50 in cell proliferation assay, HEC-1 cell line) of 1.91 µM, an IC50 (Homo sapiens, HEC-1B, read-out: IC50 in cell proliferation assay, HEC-1-B cell line (EGFR p.A864V)) of 0.014 µM and an IC50 (Homo sapiens, HL-60, read-out: IC50 in cell proliferation assay, HL-60 cell line) of 1.74 µM. The IC50 (Homo sapiens, HT, read-out: IC50 in cell proliferation assay, HT cell line) was 3.76 µM, the IC50 (Homo sapiens, HT-1080, read-out: IC50 in cell proliferation assay, HT-1080 cell line) was 2.79 µM and the IC50 (Homo sapiens, Hs746T, read-out: IC50 in cell proliferation assay, Hs 746.T cell line (MET exon14skip + amplification)) was 3.12 µM. The IC50 (Homo sapiens, Hs-578T, read-out: IC50 in cell proliferation assay, Hs 578T cell line) was 3.09 µM, the IC50 (Homo sapiens, HuTu80, read-out: IC50 in cell proliferation assay, HuTu 80 cell line) was 4.06 µM and the IC50 (Homo sapiens, J82, read-out: IC50 in cell proliferation assay, J82 cell line) was 3.95 µM. The IC50 (Homo sapiens, Jurkat E6.1, read-out: IC50 in cell proliferation assay, Jurkat E6.1 cell line) was 3.18 µM, the IC50 (Homo sapiens, K562, read-out: IC50 in cell proliferation assay, K-562 cell line) was 3.44 µM and the IC50 (Homo sapiens, KATO III, read-out: IC50 in cell proliferation assay, KATO III cell line (FGFR2 amplification)) was 2.96 µM. For the same molecule, the IC50 (Homo sapiens, KG-1, read-out: IC50 in cell proliferation assay, KG-1 cell line (FGFR1OP2-FGFR1)) was 2.57 µM, the IC50 (Homo sapiens, KLE, read-out: IC50 in cell proliferation assay, KLE cell line) was 3.44 µM and the IC50 (Homo sapiens, KMS-11, read-out: IC50 in cell proliferation assay, KMS-11 cell line (FGFR3 p.Y373C)) was 3.54 µM. For the same molecule, the IC50 (Homo sapiens, KU812, read-out: IC50 in cell proliferation assay, Ku812 cell line) was 3.2 µM, the IC50 (Homo sapiens, Kasumi 1, read-out: IC50 in cell proliferation assay, Kasumi-1 cell line (KIT p.N822K)) was 1.63 µM and the IC50 (Homo sapiens, LC-2-ad, read-out: IC50 in cell proliferation assay, LC-2/ad cell line (CCDC6-RET)) was 2.89 µM. The IC50 (Homo sapiens, LNCaP-Clone-FGC, read-out: IC50 in cell proliferation assay, LNCaP clone FGC cell line) was 7.97 µM, the IC50 (Homo sapiens, LS174T, read-out: IC50 in cell proliferation assay, LS174T cell line) was 2.67 µM and the IC50 (Homo sapiens, LS-411N, read-out: IC50 in cell proliferation assay, LS411N cell line (BRAF p.V600E)) was 4.24 µM. It also gave an IC50 (Homo sapiens, LoVo, read-out: IC50 in cell proliferation assay, LoVo cell line) of 4.3 µM, an IC50 (Homo sapiens, MCF7, read-out: IC50 in cell proliferation assay, MCF-7 cell line) of 12.9 µM and an IC50 (Homo sapiens, MDA-MB-231, read-out: IC50 in cell proliferation assay, MDA-MB-231 cell line) of 3.69 µM. For the same molecule, the IC50 (Homo sapiens, MDA-MB-453, read-out: IC50 in cell proliferation assay, MDA-MB-453 cell line) was 3.25 µM, the IC50 (Homo sapiens, MDA-MB-468, read-out: IC50 in cell proliferation assay, MDA-MB-468 cell line) was 0.033 µM and the IC50 (Homo sapiens, MG-63, read-out: IC50 in cell proliferation assay, MG-63 cell line) was 4 µM. It also gave an IC50 (Homo sapiens, MIA PaCa-2, read-out: IC50 in cell proliferation assay, MIA PaCa-2 cell line) of 3.93 µM, an IC50 (Homo sapiens, MKN-45, read-out: IC50 in cell proliferation assay, MKN45 cell line (MET amplification)) of 4.25 µM and an IC50 (Homo sapiens, MOLM-13, read-out: IC50 in cell proliferation assay, MOLM-13 cell line (FLT3 ITD)) of 1.17 µM. It also gave an IC50 (Homo sapiens, MOLT-4, read-out: IC50 in cell proliferation assay, MOLT-4 cell line) of 3.64 µM and an IC50 (Homo sapiens, MV4-11, read-out: IC50 in cell proliferation assay, MV4-11 cell line (FLT3 ITD)) of 0.23 µM.
